Counter-ions that a name gives are not always drawn.

The first experiment deals with T1, Human Factor D (Homo sapiens, UniProt P00746).
T1 construct: purified from human serum; purchased Complement Technology, Inc; host or cells: human serum (natural protein, not recombinant)
T1 sequence (P00746 26-253): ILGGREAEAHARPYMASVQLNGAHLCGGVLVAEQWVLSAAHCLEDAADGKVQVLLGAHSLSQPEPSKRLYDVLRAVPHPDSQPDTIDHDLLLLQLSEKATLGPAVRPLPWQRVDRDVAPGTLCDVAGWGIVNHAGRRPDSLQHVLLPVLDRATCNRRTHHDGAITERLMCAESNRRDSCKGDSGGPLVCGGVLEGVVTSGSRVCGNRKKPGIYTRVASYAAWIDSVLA
Nature of the experiment: Human Factor D Assay. To be noted: Human Factor D 80 nM, substrate Z-L-Lys-SBzl, assay of Example 3; read-out: IC50 (Stars). The format is biochemical. As for the experimental part: Human Factor D (purified from human serum, Complement Technology, Inc.) at 80 nM final concentration is incubated with test compound at various concentrations for 5 min at room temperature in 50 mM Tris, 1M NaCl, pH 7.5. A synthetic substrate Z-L-Lys-SBzl and DTNB (Ellman's reagent) are added to final concentrations of 100 μM each. […] IC50 values are calculated by nonlinear regression of complement Factor D reaction rates as a function of test compound concentration.
On to `CC(=O)c1nn(CC(=O)N2C[C@H](F)C[C@H]2C(=O)Nc2cccc(Br)n2)c2ccc(-c3ccc(C)c(F)c3)cc12` [Compound 34, (2S,4R)-1-(2-(3-Acetyl-5-(3-fluoro-4-methylphenyl)-1H-indazol-1-yl)acetyl)-N-(6-bromopyridin-2-yl)-4-fluoropyrrolidine-2-carboxamide], for which the IC50 is less than 1 µM.
In the case of `CC(=O)c1nn(CC(=O)N2[C@H](C(=O)NCCc3ccccc3F)C[C@@]3(C)C[C@@H]23)c2c(C)cc(-c3cnc(C)nc3)cc12` [Compound 1, (1R,3S,5R)-2-(2-(3-Acetyl-7-methyl-5-(2-methylpyrimidin-5-yl)-1H-indazol-1-yl)acetyl)-N-(2-fluorophenethyl)-5-methyl-2-azabicyclo[3.1.0]hexane-3-carboxamide], the IC50 was less than 1 µM.
For `CC(=O)c1nn(CC(=O)N2C[C@H](F)C[C@H]2C(=S)Nc2cccc(Br)n2)c2ccc(-c3cnc(C)nc3)cc12` [Compound 36, (2S,4R)-1-(2-(3-Acetyl-5-(2-methylpyrimidin-5-yl)-1H-indazol-1-yl)acetyl)-N-(6-bromopyridin-2-yl)-4-fluoropyrrolidine-2-carbothioamide], the 50% inhibitory concentration (IC50) was less than 1 µM.
For `CC[C@@H](C)NC(=O)[C@@H]1C[C@@]2(C)C[C@H]2N1C(=O)Cn1nc(C(C)=O)c2cc(-c3cnc(C)nc3)ccc21` [Compound 11, (1R,3S,5R)-2-(2-(3-Acetyl-5-(2-methylpyrimidin-5-yl)-1H-indazol-1-yl)acetyl)-N—((R)-sec-butyl)-5-methyl-2-azabicyclo[3.1.0]hexane-3-carboxamide], the IC50 is less than 1 µM.
The same measure, in the same setting: next, `CC(=O)c1nn(CC(=O)N2[C@H](C(=O)N[C@@H](C)[C@H]3CC3(Cl)Cl)C[C@@]3(C)C[C@@H]23)c2ccc(-c3cnc(C)nc3)cc12` [Compound 26, (1R,3S,5R)-2-(2-(3-acetyl-5-(2-methylpyrimidin-5-yl)-1H-indazol-1-yl)acetyl)-N-((S)-1-((R)-2,2-dichlorocyclo-propyl)ethyl)-5-methyl-2-azabicyclo[3.1.0] hexane-3-carboxamide]: less than 1 µM.

The same experiment, now with this note: Human Factor D 80 nM, substrate Z-L-Lys-SBzl; Table 2; read-out: IC50 (Stars).
Consider `CC(=O)c1cn(CC(=O)N2[C@H](C(=O)Nc3cncc(Br)n3)C[C@@]3(C)C[C@@H]23)c2c(C)cc(-c3cnc(C(C)O)nc3)cc12` (stereo partly drawn) [Compound 159, (1R,3S,5R)-2-(2-(3-acetyl-5-(2-(1-hydroxyethyl)pyrimidin-5-yl)-7-methyl-1H-indol-1-yl)acetyl)-N-(6-bromopyrazin-2-yl)-5-methyl-2-azabicyclo[3.1.0]hexane-3-carboxamide], for which the half-maximal inhibitory concentration (IC50) is less than 1 µM.
Still for that read-out and setting: next, `CC(=O)c1nn(CC(=O)N2[C@H](C(=O)Nc3cncc(Br)n3)C[C@@]3(C)C[C@@H]23)c2c(C)cc(-c3cnc(C(=O)O)nc3)cc12` [Compound 43, 5-(3-acetyl-1-(2-((1R,3S,5R)-3-((6-bromopyrazin-2-yl)carbamoyl)-5-methyl-2-azabicyclo[3.1.0]hexan-2-yl)-2-oxoethyl)-7-methyl-1H-indazol-5-yl)pyrimidine-2-carboxylic acid]: less than 1 µM.
Regarding `CC(=O)c1nn(CC(=O)N2[C@H](C(=O)N[C@H](C)C3CCCCC3)C[C@@]3(C)C[C@@H]23)c2c(C)cc(-c3cnc(C)nc3)cc12` [Compound 70, (1R,3S,5R)-2-(2-(3-acetyl-7-methyl-5-(2-methylpyrimidin-5-yl)-1H-indazol-1-yl)acetyl)-N—((R)-1-cyclohexylethyl)-5-methyl-2-azabicyclo[3.1.0]hexane-3-carboxamide], the half-inhibitory concentration (IC50) is less than 1 µM.
As for `CC(=O)c1nn(CC(=O)N2C[C@H]3C[C@H]3[C@H]2C(=O)Nc2cncc(Br)n2)c2c(C)cc(-c3cnc(CO)nc3)cc12` [Compound 74, (1R,2S,5S)-3-(2-(3-acetyl-5-(2-(hydroxymethyl)pyrimidin-5-yl)-7-methyl-11H-indazol-1-yl)acetyl)-N-(6-bromopyrazin-2-yl)-3-azabicyclo[3.1.0]hexane-2-carboxamide], the concentration for half-maximal inhibition (IC50) is less than 1 µM.
For `CC(=O)c1cn(CC(=O)N2[C@H](C(=O)Nc3nc(Br)c(F)cc3C)C[C@@]3(C)C[C@@H]23)c2c(C)cc(-c3cnc(C)nc3)cc12` [Compound 144, (1R,3S,5R)-2-(2-(3-acetyl-7-methyl-5-(2-methylpyrimidin-5-yl)-1H-indol-1-yl)acetyl)-N-(6-bromo-5-fluoro-3-methylpyridin-2-yl)-5-methyl-2-azabicyclo[3.1.0]hexane-3-carboxamide], the IC50 was less than 1 µM.
On to `COc1cc(Br)nc(NC(=O)[C@@H]2C[C@@]3(C)C[C@H]3N2C(=O)Cn2nc(C(C)=O)c3cc(-c4cnc(CO)nc4)cc(C)c32)c1` [Compound 65, (1R,3S,5R)-2-(2-(3-acetyl-5-(2-(hydroxymethyl)pyrimidin-5-yl)-7-methyl-11H-indazol-1-yl)acetyl)-N-(6-bromo-4-methoxypyridin-2-yl)-5-methyl-2-azabicyclo[3.1.0]hexane-3-carboxamide], for which the half-inhibitory concentration (IC50) is less than 1 µM.
On the same count and under the same terms, next, `CC(=O)c1cn(CC(=O)N2[C@H](C(=O)Nc3cncc(Br)n3)C[C@@]3(C)C[C@@H]23)c2c(C)cc(-c3cnc(C)nc3)cc12` [Compound 155, (1R,3S,5R)-2-(2-(3-acetyl-7-methyl-5-(2-methylpyrimidin-5-yl)-1H-indol-1-yl)acetyl)-N-(6-bromopyrazin-2-yl)-5-methyl-2-azabicyclo[3.1.0]hexane-3-carboxamide]: less than 1 µM; `CC(=O)c1nn(CC(=O)N2[C@H](C(=O)NCC3CCc4ccccc4C3)C[C@@]3(C)C[C@@H]23)c2c(C)cc(-c3cnc(C)nc3)cc12` (stereo partly drawn) [Compound 117, (1R,3S,5R)-2-{2-[3-acetyl-7-methyl-5-(2-methylpyrimidin-5-yl)indazol-1-yl]acetyl}-5-methyl-N-(1,2,3,4-tetrahydronaphthalen-2-ylmethyl)-2-azabicyclo[3.1.0]hexane-3-carboxamide]: less than 1 µM.
For the molecule `CC(=O)c1nn(CC(=O)N2[C@H](C(=O)NC(C)Cc3ccc(O)cc3)C[C@@]3(C)C[C@@H]23)c2c(C)cc(-c3cnc(C)nc3)cc12` (stereo partly drawn) [Compound 147, (1R,3S,5R)-2-{2-[3-acetyl-7-methyl-5-(2-methylpyrimidin-5-yl)indazol-1-yl]acetyl}-N-[1-(4-hydroxyphenyl)propan-2-yl]-5-methyl-2-azabicyclo[3.1.0]hexane-3-carboxamide], the IC50 is less than 1 µM.
On to `CC(=O)c1nn(CC(=O)N2[C@H](C(=O)Nc3cncc(Br)n3)C[C@@]3(C)C[C@@H]23)c2ccc(-c3cnc(CO)nc3)cc12` [Compound 64, (1R,3S,5R)-2-(2-(3-acetyl-5-(2-(hydroxymethyl)pyrimidin-5-yl)-1H-indazol-1-yl)acetyl)-N-(6-bromopyrazin-2-yl)-5-methyl-2-azabicyclo[3.1.0]hexane-3-carboxamide], for which the IC50 was less than 1 µM.
The same measure, in the same setting: the figure for `COc1cc(Br)nc(NC(=O)[C@@H]2[C@@H]3C[C@@H]3CN2C(=O)Cn2nc(C(C)=O)c3cc(-c4cnc(CO)nc4)cc(C)c32)c1` [Compound 73, (1R,2S,5S)-3-(2-(3-acetyl-5-(2-(hydroxymethyl)pyrimidin-5-yl)-7-methyl-11H-indazol-1-yl)acetyl)-N-(6-bromo-4-methoxypyridin-2-yl)-3-azabicyclo[3.1.0]hexane-2-carboxamide] is less than 1 µM; for `CC(=O)c1nn(CC(=O)N2[C@H](C(=O)Nc3ccc(F)c(Br)n3)C[C@@]3(C)C[C@@H]23)c2c(C)cc(-c3cnc(CO)nc3)cc12` [Compound 120, (1R,3S,5R)-2-(2-(3-acetyl-5-(2-(hydroxymethyl)pyrimidin-5-yl)-7-methyl-1H-indazol-1-yl)acetyl)-N-(6-bromo-5-fluoropyridin-2-yl)-5-methyl-2-azabicyclo[3.1.0]hexane-3-carboxamide] it is less than 1 µM.
Consider `CC(=O)c1nn(CC(=O)N2C[C@H]3C[C@H]3[C@H]2C(=O)Nc2nc(Br)ccc2C)c2c(C)cc(-c3cnc(C(C)O)nc3)cc12` (stereo partly drawn) [Compound 164, (1R,2S,5S)-3-(2-(3-acetyl-5-(2-(1-hydroxyethyl)pyrimidin-5-yl)-7-methyl-1H-indazol-1-yl)acetyl)-N-(6-bromo-3-methylpyridin-2-yl)-3-azabicyclo[3.1.0]hexane-2-carboxamide], for which the IC50 is less than 1 µM.
As to `CC(=O)c1nn(CC(=O)N2[C@H](C(=O)Nc3cncc(Br)n3)C[C@@]3(C)C[C@@H]23)c2c(C)cc(-c3cnc(C(C)O)nc3)cc12` (stereo partly drawn) [Compound 109, (1R,3S,5R)-2-(2-(3-acetyl-5-(2-(1-hydroxyethyl)pyrimidin-5-yl)-7-methyl-11H-indazol-1-yl)acetyl)-N-(6-bromopyrazin-2-yl)-5-methyl-2-azabicyclo[3.1.0]hexane-3-carboxamide], the IC50 is less than 1 µM.
On to `CC(=O)c1nn(CC(=O)N2[C@H](C(=O)N[C@@H]3CCCCC34OCCO4)C[C@@]3(C)C[C@@H]23)c2c(C)cc(-c3cnc(C)nc3)cc12` (single isomer, unassigned) [Compound 136], for which the half-maximal inhibitory concentration (IC50) was less than 1 µM.
With `CC(=O)c1nn(CC(=O)N2[C@H](C(=O)Nc3nc(Br)ccc3C)C[C@@]3(C)C[C@@H]23)c2c(C)cc(-c3cnc([C@H](C)O)nc3)cc12` (single isomer, unassigned) [Compound 141], the half-maximal inhibitory concentration (IC50) is less than 1 µM.
Same read-out and setting: the figure for `CC(=O)c1nn(CC(=O)N2C[C@@H](C(C)(C)N)C[C@H]2C(=O)Nc2nc(C(F)(F)F)ccc2C)c2c(C)cc(-c3cnc(C)nc3)cc12` [Compound 56, (2S,4S)-1-(2-(3-acetyl-7-methyl-5-(2-methylpyrimidin-5-yl)-1H-indazol-1-yl)acetyl)-4-(2-aminopropan-2-yl)-N-(3-methyl-6-(trifluoromethyl)pyridin-2-yl)pyrrolidine-2-carboxamide hydrochloride] is less than 1 µM.

Source of the values: patent publication US20230022157A1 (Achillion Pharmaceuticals, Inc., priority 2018, published 2023).
